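Dose response: 5 concentrations. Exposure: 48 h. Format: 96-well plates. Endpoint: linear interpolation; highest concentration if not reached. GI50 = concentration required for 50% inhibition of growth.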 Active and inactive are the calls of the source. Cut-off read from the data, not from the text of the source: active = GI50 up to about 1.1 µM and inactive = higher.
Columns and labels:
Experiment in all cases: NCI tumour cell line growth inhibition, 48 h
[1] = system: HCC 2998
[2] = system: IGROV-1
[3] = system: NCI-H226
[4] = system: K562
[5] = system: HCT-116
[6] = system: OVCAR-5
[7] = system: NCI-H460
[8] = system: OVCAR-8
[9] = system: LOX IMVI
[10] = system: RPMI-8226
[11] = system: HCT-15
[12] = system: NCI-H23
[13] = system: SK-MEL-5
[14] = system: HT-29
[15] = system: EKVX
[16] = system: SW-620
[17] = system: SF-539
[18] = system: SNB-75
[19] = system: SK-MEL-2

SMILES | GI50 [1] | GI50 [2] | GI50 [3] | GI50 [4] | GI50 [5] | GI50 [6] | GI50 [7] | GI50 [8] | GI50 [9] | GI50 [10] | GI50 [11] [µM] | GI50 [12] | GI50 [13] | GI50 [14] | GI50 [15] | GI50 [16] | GI50 [17] | GI50 [18] | GI50 [19]
COc1cc2c(cc1O)[C@@]1(Cc3ccc(OC)c(OC)c3)CCC(=O)N1CC2 | > 100 µM (inactive) | > 100 µM (inactive) | > 100 µM (inactive) | > 100 µM (inactive) | > 100 µM (inactive) | > 100 µM (inactive) | > 100 µM (inactive) | > 100 µM (inactive) | > 100 µM (inactive) | > 100 µM (inactive) | > 100 | > 100 µM (inactive) | > 100 µM (inactive) | > 100 µM (inactive) | > 100 µM (inactive) | > 10 µM (inactive) | > 100 µM (inactive) | > 100 µM (inactive) | 
N#C/C(=C\c1ccc(CP(=O)(O)O)cc1)C(N)=O | > 100 µM (inactive) | > 100 µM (inactive) | > 100 µM (inactive) | > 100 µM (inactive) | > 100 µM (inactive) | > 100 µM (inactive) | > 100 µM (inactive) | > 100 µM (inactive) | > 100 µM (inactive) | > 100 µM (inactive) | > 100 | > 100 µM (inactive) | > 100 µM (inactive) | > 100 µM (inactive) | > 100 µM (inactive) | > 100 µM (inactive) | > 100 µM (inactive) |  | > 100 µM (inactive)
Cc1ccc(S(=O)(=O)NC(=O)NC(CC(=O)O)C(=O)O)cc1 (centres undefined) |  | > 100 µM (inactive) |  | > 100 µM (inactive) | > 100 µM (inactive) | > 100 µM (inactive) | > 100 µM (inactive) | > 100 µM (inactive) | > 100 µM (inactive) | > 100 µM (inactive) | > 100 | > 100 µM (inactive) | > 100 µM (inactive) | > 100 µM (inactive) |  | > 100 µM (inactive) | > 100 µM (inactive) | > 100 µM (inactive) | > 100 µM (inactive)
CC(=O)OC(CCC1(C)OC1COc1ccc(CCNC(=O)c2ccccc2)cc1)C(C)(C)OC(C)=O (centres undefined) |  | 39.5 µM (inactive) | > 100 µM (inactive) | 0.752 µM (active) | 0.794 µM (active) | > 100 µM (inactive) | 13.1 µM (inactive) | 15.7 µM (inactive) | 2.18 µM (inactive) | 18.6 µM (inactive) | 13.9 | 0.302 µM (active) | 1.1 µM (active) | 17.4 µM (inactive) |  | > 100 µM (inactive) | > 100 µM (inactive) | 32.6 µM (inactive) | 17.3 µM (inactive)
COc1cccc2c1C(=O)c1c(O)c3c(c(O)c1C2=O)C[C@@](O)(C(C)=O)C[C@@H]3OC1CC([N+]([O-])(Cc2ccccc2)Cc2ccccc2)C(O)C(C)O1 (some centres undefined) | 1.62 µM (inactive) | 1.36 µM (inactive) |  | 1.7 µM (inactive) |  | 1.79 µM (inactive) | 0.71 µM (active) | 0.774 µM (active) | 1.02 µM (active) | 1.54 µM (inactive) | 1.32 | 1.3 µM (inactive) | 1.35 µM (inactive) | 1.52 µM (inactive) | 1.8 µM (inactive) | 1 µM (active) | 1.26 µM (inactive) | 1.48 µM (inactive) | 1.98 µM (inactive)
Nc1ccccc1Nc1ccccc1C(=O)[O-].Nc1ccccc1Nc1ccccc1C(=O)[O-].[Zn+2] | > 100 µM (inactive) | 40.6 µM (inactive) |  | 62.4 µM (inactive) | > 100 µM (inactive) | > 100 µM (inactive) | > 100 µM (inactive) | > 100 µM (inactive) |  | > 100 µM (inactive) | > 100 | > 100 µM (inactive) | 91.4 µM (inactive) | > 100 µM (inactive) | > 100 µM (inactive) | > 100 µM (inactive) | > 100 µM (inactive) | 17.7 µM (inactive) | 19.8 µM (inactive)
CC1CCN(CCC(=O)CC(c2ccccc2)c2c(O)c3ccccc3oc2=O)CC1 (centres undefined) |  | > 100 µM (inactive) | 80 µM (inactive) | > 100 µM (inactive) | > 100 µM (inactive) |  | > 100 µM (inactive) | > 100 µM (inactive) | > 100 µM (inactive) | > 100 µM (inactive) | > 100 | > 100 µM (inactive) | > 100 µM (inactive) | > 100 µM (inactive) | > 100 µM (inactive) | > 100 µM (inactive) | > 100 µM (inactive) | 82.8 µM (inactive) | > 100 µM (inactive)
NC(CCCNc1cccc(O)c1)C(=O)O (centres undefined) |  |  | > 100 µM (inactive) | > 100 µM (inactive) | > 100 µM (inactive) | > 100 µM (inactive) | > 100 µM (inactive) | > 100 µM (inactive) | > 100 µM (inactive) | > 100 µM (inactive) | > 100 |  | > 100 µM (inactive) | > 100 µM (inactive) | > 100 µM (inactive) | > 100 µM (inactive) |  | > 100 µM (inactive) | > 100 µM (inactive)
O=C(CC(C(=O)O)N1CCOCC1)c1ccccc1 (centres undefined) |  | 26.2 µM (inactive) | > 100 µM (inactive) | 18.8 µM (inactive) | 14 µM (inactive) | 22.3 µM (inactive) | 19.5 µM (inactive) | 30.8 µM (inactive) | 17.5 µM (inactive) | 12.7 µM (inactive) | 19.5 | 20.7 µM (inactive) | 19.6 µM (inactive) | 17.1 µM (inactive) | 18.4 µM (inactive) | 19.8 µM (inactive) | 22.6 µM (inactive) | 31 µM (inactive) | 19.1 µM (inactive)
Cc1ccc(/C=C/C(=O)CCN(C)C)cc1 | 17.7 µM (inactive) | 20.8 µM (inactive) | 19.2 µM (inactive) | 32 µM (inactive) | 18.9 µM (inactive) | 33.8 µM (inactive) | 21.8 µM (inactive) | 15.9 µM (inactive) | 16.3 µM (inactive) | 19.3 µM (inactive) | 15.5 | 27.9 µM (inactive) | 19.4 µM (inactive) | 18.2 µM (inactive) |  | 16.6 µM (inactive) | 16.9 µM (inactive) | 20.1 µM (inactive) | 
C[C@]1(CO)CCC[C@@]2(C)C1CC[C@H]1CC3C[C@]12CC[C@]3(C)O (some centres undefined) | 58.9 µM (inactive) | > 10 µM (inactive) | > 100 µM (inactive) | 11.5 µM (inactive) | 49.8 µM (inactive) | > 100 µM (inactive) | 19 µM (inactive) | > 100 µM (inactive) | 90.6 µM (inactive) | 17.3 µM (inactive) | > 100 | 83.8 µM (inactive) | 17.9 µM (inactive) | > 100 µM (inactive) |  | > 100 µM (inactive) | 57.7 µM (inactive) | 30.8 µM (inactive) | 
CN1N=C2NCCNC3=NN(C)/C(=N/CC/N=C/1S2)S3 |  | > 100 µM (inactive) | > 100 µM (inactive) | > 100 µM (inactive) | > 100 µM (inactive) | > 100 µM (inactive) | > 100 µM (inactive) | > 100 µM (inactive) | > 100 µM (inactive) | > 100 µM (inactive) | > 100 | > 100 µM (inactive) | > 100 µM (inactive) | > 100 µM (inactive) | > 100 µM (inactive) | > 100 µM (inactive) | > 100 µM (inactive) | > 100 µM (inactive) | 
COc1cc(C)c(O)c(C(=O)O)c1 | > 100 µM (inactive) | > 100 µM (inactive) | > 100 µM (inactive) | > 100 µM (inactive) | > 100 µM (inactive) | > 100 µM (inactive) | > 100 µM (inactive) | > 100 µM (inactive) | > 100 µM (inactive) |  | > 100 | > 100 µM (inactive) | > 100 µM (inactive) | > 100 µM (inactive) |  | > 100 µM (inactive) |  | > 100 µM (inactive) | > 100 µM (inactive)
COc1cc([C@@H]2c3cc4c(cc3C(N)C3COC(=O)[C@@H]32)OCO4)cc(OC)c1O (some centres undefined) | 0.249 µM (active) | 0.515 µM (active) | 0.292 µM (active) | 0.225 µM (active) | 0.33 µM (active) |  | 0.304 µM (active) | 0.308 µM (active) | 0.241 µM (active) | 0.277 µM (active) | 0.324 | 0.373 µM (active) | 0.244 µM (active) | 0.232 µM (active) |  | 0.301 µM (active) | 0.189 µM (active) | 0.133 µM (active) | 
CC1(C)C(c2ccccc2)=NN(O)c2ccccc21 | > 100 µM (inactive) | > 100 µM (inactive) | > 100 µM (inactive) | > 100 µM (inactive) | > 100 µM (inactive) | > 100 µM (inactive) | > 100 µM (inactive) | > 100 µM (inactive) |  | > 100 µM (inactive) | > 100 | > 100 µM (inactive) | > 100 µM (inactive) | > 100 µM (inactive) | > 100 µM (inactive) | > 100 µM (inactive) | > 100 µM (inactive) | 86.1 µM (inactive) | > 100 µM (inactive)
CC(Oc1ccc2c(-c3ccccc3)cc(=O)oc2c1)C(=O)O (centres undefined) | > 100 µM (inactive) | > 100 µM (inactive) | > 100 µM (inactive) | > 100 µM (inactive) | > 100 µM (inactive) |  | > 100 µM (inactive) | > 100 µM (inactive) | > 100 µM (inactive) |  |  | > 100 µM (inactive) | > 100 µM (inactive) | > 100 µM (inactive) | > 100 µM (inactive) | > 100 µM (inactive) | > 100 µM (inactive) | > 100 µM (inactive) | 
